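48-hour exposure; five concentrations; linearly interpolated endpoints. Definition used: TGI = concentration required for complete inhibition of growth.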
Legend:
Assay in all cases: DTP human tumour cell line panel, 48 h
SNB-19 CNS = test system: SNB-19 CNS
KM12 colon = test system: KM12 colon
CCRF-CEM leukemia = test system: CCRF-CEM leukemia
SK-MEL-5 melanoma = test system: SK-MEL-5 melanoma
LOX IMVI melanoma = test system: LOX IMVI melanoma
NCI-H460 lung = test system: NCI-H460 lung
PC-3 prostate = test system: PC-3 prostate
MOLT-4 leukemia = test system: MOLT-4 leukemia
HCC-2998 colon = test system: HCC-2998 colon
HL-60(TB) leukemia = test system: HL-60(TB) leukemia
OVCAR-8 ovarian = test system: OVCAR-8 ovarian
U251 CNS = test system: U251 CNS
SF-268 CNS = test system: SF-268 CNS
SF-295 CNS = test system: SF-295 CNS
CAKI-1 renal = test system: CAKI-1 renal
DU-145 prostate = test system: DU-145 prostate
HT29 colon = test system: HT29 colon
SW-620 colon = test system: SW-620 colon
COLO 205 colon = test system: COLO 205 colon

SMILES	TGI (SNB-19 CNS) [µM]	TGI (KM12 colon) [µM]	TGI (CCRF-CEM leukemia) [µM]	TGI (SK-MEL-5 melanoma) [µM]	TGI (LOX IMVI melanoma) [µM]	TGI (NCI-H460 lung) [µM]	TGI (PC-3 prostate) [µM]	TGI (MOLT-4 leukemia) [µM]	TGI (HCC-2998 colon) [µM]	TGI (HL-60(TB) leukemia) [µM]	TGI (OVCAR-8 ovarian) [µM]	TGI (U251 CNS) [µM]	TGI (SF-268 CNS) [µM]	TGI (SF-295 CNS) [µM]	TGI (CAKI-1 renal) [µM]	TGI (DU-145 prostate) [µM]	TGI (HT29 colon) [µM]	TGI (SW-620 colon) [µM]	TGI (COLO 205 colon) [µM]
CN1CCC(OC(=O)Oc2ccccc2)(c2ccccc2)CC1	69.2	37.5	55.1	34.2	34	39.3	45.8	36.4	38.3	36.6	33	44.9	> 100	55.4	> 100	> 100	26	59.6	25.8
O=C1SCC(O)=C1/C=N/Nc1nc2ccccc2o1	> 100	> 100	48.8	63.9	> 100	> 100	88.6	> 100	> 100	24.7	46.6	–	> 100	72.4	> 100	> 100	83.7	> 100	81
O=P(c1ccccc1)(c1ccccc1)C(NCc1ccccc1)c1ccc(F)cc1 (stereo unspecified)	33.5	29.1	48.6	29.6	28	26.7	–	37.5	29.6	> 100	40.6	30	37.4	29.4	38	45.2	26.5	35.5	29.7
COc1ccc(-c2c(C(C)=O)c(-c3ccccc3)n(C3OC(COC(C)=O)C(OC(C)=O)C(OC(C)=O)C3OC(C)=O)c(=S)c2C#N)cc1 (stereo unspecified)	> 100	> 100	> 100	> 100	> 100	> 100	–	> 100	> 100	> 100	> 100	> 100	> 100	> 100	> 100	> 100	> 100	> 100	> 100
O=C1c2ccccc2S[C@@H](O)[C@@H]2CCCN12	> 100	> 100	> 100	> 100	> 100	> 100	–	> 100	> 100	> 100	> 100	> 100	> 100	> 100	–	–	–	> 100	> 100
CC(=O)NCc1nc(C#N)c(N)o1	> 100	> 100	> 100	–	> 100	> 100	> 100	> 100	> 100	> 100	> 100	> 100	> 100	> 100	> 100	> 100	> 100	> 100	> 100
